{
  "source": "paper PMC8750417",
  "about": "“Intracellular Amplifiers of Reactive Oxygen Species Affecting Mitochondria as Radiosensitizers” (Cancers, 2021)",
  "key": {"[1]": {"tested_on": "SBLF9 fibroblasts", "test": "Mitochondrial ROS imaging (MitoSOX), SBLF9 fibroblasts", "format": "cell-based", "details": "5 µM", "procedure": "(§1) The cells were re-suspended in RPMI 1640 medium containing 5% FBS, 1% L-glutamine and 1% penicillin/streptomycin (100 µL). Finally, the fluorescence of live cells (λex = 488 nm, λem = 530 nm) in the suspensions was determined by using flow cytometry (Figure […]\nFigure S62. Fluorescence of DAF-FM diacetate-loaded A2780 cells treated either with 2c or the carrier. *: p<0.05, Student’s t test.\nEffect of prodrug 2c on mitochondrial reactive oxygen species in representative cancer (A2780) and normal cells (SBLF9 fibroblasts) (Figure 6)\nA2780 cells were seeded in of RPMI 1640 medium (500 µL) supplemented with 5% FBS, 1% L-glutamine, and 1% penicillin/streptomycin on a 35 mm imaging dish (µ- Dish 35 mm, high, ibidi GmbH, Germany) at a cell density of 80 cells/µL and allowed to attach to the surface of the dish for overnight. […]\nThe fluorescence images were taken with a Zeiss Axio Vert.A1 fluorescence microscope […]\n4x10^4 cells per well. […] Cell viability was assessed by quantification of ATP (CellTiter Glo®, Promega) 48 hours after drug application.\nLuminescence was measured on a Tecan Infinite F200 Microplate Reader. Viability was calculated as % of solvent (DMSO) treated control. […]"}, "[2]": {"tested_on": "A2780 cells", "test": "Intracellular carbonyl derivatives (DCCH), A2780", "format": "cell-based, human", "details": "24 h", "procedure": "and the cells were incubated in the dark chamber filled with CO2 (5%) at 37 °C for 20 min.\nas §1, with “Next, the cells were detached from the culture dish using trypsin/EDTA (0.025%/0.01%, v/v, 50 µL). The” for “The”, “578” for “530”, “cytometry” for “cytometry (Figure”\nFigure S60. Representative flow cytometric histograms used for setting up Figures 4B […]\nMonitoring intracellular carbonyl derivatives\nA2780 cells were seeded into 24 well culture plates at the same cell concentration and in the same medium as applied for the assay for monitoring tROS described above. The next day, stock solutions of prodrugs of different concentrations (5 μL of stock solutions in DMSO, final concentration of prodrugs 5 and 10 μM; control 7 2 and 5 µM) or carrier only (DMSO, 5 µL, final concentration 1 %, v/v) were added to the wells and incubated in the chamber filled with CO2 (5%). After 24 h, the cells were washed twice with DPBS buffer and the medium was replaced with HBSS (Hanks' Balanced Salt solution, 500 μL). […]\nFinally, the fluorescence of live cells (λex = 488 nm, λem = 530 nm) in the suspensions was determined by using flow cytometry (Figure 4C). […]"}},
  "data": [
    {"molecule": "CC1(C)OB(c2ccc(COC(=O)N(Cc3cn(Cc4ccc(Cn5cc(Cc6ccccc6)nn5)cc4)nn3)[c-]3cccc3)cc2)OC1(C)C.[Fe+2].c1cc[cH-]c1", "note": "[2c]", "values": [
      {"measurement": "mROS level in normal cells", "setting": "[1]", "result": "only a slight increase of mROS level"},
      {"measurement": "formation of intracellular carbonyl derivatives", "setting": "[2]", "result": "did not induce formation of significant amounts of carbonyl derivatives"}
    ]}
  ]
}
